# Source: US20240150333A1, “TAF1 INHIBITORS” (H. LEE MOFFITT CANCER CENTER AND RESEARCH INSTITUTE, INC., priority 2020, published 2024)
# Entries after “also recorded” stand apart in the source; their conditions may differ.
# Columns and labels:
# panel of 32 bromodomains = experiment: Profiling across a panel of 32 bromodomains (DiscoveRx), overall statement; assay type: binding, human; settings: 20 μM concentration
# BRD2(2) = molecular target: T1, BRD2(2) (Homo sapiens, UniProt P25440); experiment: Bromoscan selectivity profiling (DiscoveRx); assay type: binding; settings: at 20,000 nM
# T1 construct: 32 bromodomains (by DiscoveRx); purchased DiscoveRx (BromoScan service)
# Procedure: (§1) qPCR-based BRD binding assay. Another method for the determination of dissociation constants of BRD-ligand complexes is offered by DiscoveRx Corp. The assay is based on competition between test compound and immobilized high-affinity ligand for binding to the KAc site of BRDs. The amount of TAF1 remaining on an immobilized high-affinity ligand in the presence of ligand is measured using a quantitative real-time polymerase chain reaction (qPCR) method that detects the associated DNA label tagged to the BRD.
# (§2) Inhibitor selectivity assays To assess target selectivity, compounds with highest biochemical and cellular activities can be profiled against panels of BRDs and kinases using the services of DiscoveRx and/or Reaction biology, as we have done previously.
# BRD9 = molecular target: T2, BRD9 (Homo sapiens, UniProt Q9H8M2); experiment: Bromoscan selectivity profiling (DiscoveRx); assay type: binding; settings: at 20,000 nM
# T2 construct: purchased DiscoveRx
# Procedure: as §1, §2
# BRD7 = molecular target: T3, BRD7 (Homo sapiens, UniProt Q9NPI1); experiment: Bromoscan selectivity profiling (DiscoveRx); assay type: binding; settings: at 20,000 nM
# T3 construct: purchased DiscoveRx
# Procedure: as §1, §2
# SMARCA4 = molecular target: T4, SMARCA4 (Homo sapiens, UniProt P51532); experiment: Bromoscan selectivity profiling (DiscoveRx); assay type: binding; settings: at 20,000 nM
# T4 construct: purchased DiscoveRx
# Procedure: as §1, §2
# BAZ2A = molecular target: T5, BAZ2A (Homo sapiens, UniProt Q9UIF9); experiment: Bromoscan selectivity profiling (DiscoveRx); assay type: binding; settings: at 20,000 nM
# T5 construct: 32 bromodomains (by DiscoveRx); purchased DiscoveRx (BromoScan service)
# Procedure: as §1, §2
# BRPF2/BRD1 = molecular target: T6, BRPF2/BRD1 (Homo sapiens, UniProt O95696); experiment: Bromoscan selectivity profiling (DiscoveRx); assay type: binding; settings: at 20,000 nM
# T6 construct: 32 bromodomains (by DiscoveRx); purchased DiscoveRx (BromoScan service)
# Procedure: as §1, §2
# BRD3(1) = molecular target: T7, BRD3(1) (Homo sapiens, UniProt Q15059); experiment: Bromoscan selectivity profiling (DiscoveRx); assay type: binding; settings: at 20,000 nM
# T7 construct: 32 bromodomains (by DiscoveRx); purchased DiscoveRx (BromoScan service)
# Procedure: as §1, §2
# PCAF = molecular target: T8, PCAF (Homo sapiens, UniProt Q92831); experiment: Bromoscan selectivity profiling (DiscoveRx); assay type: binding; settings: at 20,000 nM
# T8 construct: purchased DiscoveRx
# Procedure: as §1, §2
# TAF1L(2) = molecular target: T9, TAF1L(2) (Homo sapiens, UniProt Q8IZX4); experiment: Bromoscan selectivity profiling (DiscoveRx); assay type: binding; settings: at 20,000 nM
# T9 construct: purchased DiscoveRx
# Procedure: as §1, §2
# FALZ = molecular target: T10, FALZ (Homo sapiens, UniProt Q12830); experiment: Bromoscan selectivity profiling (DiscoveRx); assay type: binding; settings: at 20,000 nM
# T10 construct: purchased DiscoveRx
# Procedure: as §1, §2
# WDR9(2) = molecular target: T11, WDR9(2) (Homo sapiens, UniProt Q9NSI6); experiment: Bromoscan selectivity profiling (DiscoveRx); assay type: binding; settings: at 20,000 nM
# T11 construct: purchased DiscoveRx
# Procedure: as §1, §2
# BAZ2B = molecular target: T12, BAZ2B (Homo sapiens, UniProt Q9UIF8); experiment: Bromoscan selectivity profiling (DiscoveRx); assay type: binding; settings: at 20,000 nM
# T12 construct: 32 bromodomains (by DiscoveRx); purchased DiscoveRx (BromoScan service)
# Procedure: as §1, §2
# BRPF1 = molecular target: T13, BRPF1 (Homo sapiens, UniProt P55201); experiment: Bromoscan selectivity profiling (DiscoveRx); assay type: binding; settings: at 20,000 nM
# T13 construct: purchased DiscoveRx
# Procedure: as §1, §2
# PBRM1(5) = molecular target: T14, PBRM1(5) (Homo sapiens, UniProt Q86U86); experiment: Bromoscan selectivity profiling (DiscoveRx); assay type: binding; settings: at 20,000 nM
# T14 construct: PBRM1(5); purchased DiscoveRx
# Procedure: as §1, §2
# PBRM1(2) = molecular target: T15, PBRM1(2) (Homo sapiens, UniProt Q86U86); experiment: Bromoscan selectivity profiling (DiscoveRx); assay type: binding; settings: at 20,000 nM
# T15 construct: PBRM1(2); purchased DiscoveRx
# Procedure: as §1, §2
# BRD2(1) = molecular target: T16, BRD2(1) (Homo sapiens, UniProt P25440); experiment: Bromoscan selectivity profiling (DiscoveRx); assay type: binding; settings: at 20,000 nM
# T16 construct: 32 bromodomains (by DiscoveRx); purchased DiscoveRx (BromoScan service)
# Procedure: as §1, §2
# CECR2 = molecular target: T17, CECR2 (Homo sapiens, UniProt Q9BXF3); experiment: Bromoscan selectivity profiling (DiscoveRx); assay type: binding; settings: at 20,000 nM
# T17 construct: purchased DiscoveRx
# Procedure: as §1, §2
# TAF1(2) = molecular target: T18, TAF1(2) (Homo sapiens, UniProt P21675); experiment: Bromoscan selectivity profiling (DiscoveRx); assay type: binding; settings: at 20,000 nM
# T18 construct: purchased DiscoveRx
# Procedure: as §1, §2
# EP300 = molecular target: T19, EP300 (Homo sapiens, UniProt Q09472); experiment: Bromoscan selectivity profiling (DiscoveRx); assay type: binding; settings: at 20,000 nM
# T19 construct: purchased DiscoveRx
# Procedure: as §1, §2
# ATAD2B = molecular target: T20, ATAD2B (Homo sapiens, UniProt Q9ULI0); experiment: Bromoscan selectivity profiling (DiscoveRx); assay type: binding; settings: at 20,000 nM
# T20 construct: 32 bromodomains (by DiscoveRx); purchased DiscoveRx (BromoScan service)
# Procedure: as §1, §2
# SMARCA2 = molecular target: T21, SMARCA2 (Homo sapiens, UniProt P51531); experiment: Bromoscan selectivity profiling (DiscoveRx); assay type: binding; settings: at 20,000 nM
# T21 construct: purchased DiscoveRx
# Procedure: as §1, §2
# CREBBP = molecular target: T22, CREBBP (Homo sapiens, UniProt Q92793); experiment: Bromoscan selectivity profiling (DiscoveRx); assay type: binding; settings: at 20,000 nM
# T22 construct: purchased DiscoveRx
# Procedure: as §1, §2
# BRD4(1) = molecular target: T23, BRD4(1) (Homo sapiens, UniProt O60885); experiment: Bromoscan selectivity profiling (DiscoveRx); assay type: binding; settings: at 20,000 nM
# T23 construct: 32 bromodomains (by DiscoveRx); purchased DiscoveRx (BromoScan service)
# Procedure: as §1, §2
# ATAD2A = molecular target: T24, ATAD2A (Homo sapiens, UniProt Q6PL18); experiment: Bromoscan selectivity profiling (DiscoveRx); assay type: binding; settings: at 20,000 nM
# T24 construct: 32 bromodomains (by DiscoveRx); purchased DiscoveRx (BromoScan service)
# Procedure: as §1, §2
# TRIM24(PHD, Bromo.) = molecular target: T25, TRIM24(PHD, Bromo.) (Homo sapiens, UniProt O15164); experiment: Bromoscan selectivity profiling (DiscoveRx); assay type: binding; settings: at 20,000 nM
# T25 construct: TRIM24(PHD, Bromo.); purchased DiscoveRx
# Procedure: as §1, §2
# GCN5L(2) = molecular target: T26, GCN5L(2) (Homo sapiens, UniProt Q92830); experiment: Bromoscan selectivity profiling (DiscoveRx); assay type: binding; settings: at 20,000 nM
# T26 construct: purchased DiscoveRx
# Procedure: as §1, §2
# BRD4(2) = molecular target: T27, BRD4(2) (Homo sapiens, UniProt O60885); experiment: Bromoscan selectivity profiling (DiscoveRx); assay type: binding; settings: at 20,000 nM
# T27 construct: purchased DiscoveRx
# Procedure: as §1, §2
# BRDT(2) = molecular target: T28, BRDT(2) (Homo sapiens, UniProt Q58F21); experiment: Bromoscan selectivity profiling (DiscoveRx); assay type: binding; settings: at 20,000 nM
# T28 construct: BRDT(2); purchased DiscoveRx
# Procedure: as §1, §2
# BRDT(1) = molecular target: T29, BRDT(1) (Homo sapiens, UniProt Q58F21); experiment: Bromoscan selectivity profiling (DiscoveRx); assay type: binding; settings: at 20,000 nM
# T29 construct: BRDT(1); purchased DiscoveRx
# Procedure: as §1, §2
# BRD3(2) = molecular target: T30, BRD3(2) (Homo sapiens, UniProt Q15059); experiment: Bromoscan selectivity profiling (DiscoveRx); assay type: binding; settings: at 20,000 nM
# T30 construct: 32 bromodomains (by DiscoveRx); purchased DiscoveRx (BromoScan service)
# Procedure: as §1, §2
# BRPF3 = molecular target: T31, BRPF3 (Homo sapiens, UniProt Q9ULD4); experiment: Bromoscan selectivity profiling (DiscoveRx); assay type: binding; settings: at 20,000 nM
# T31 construct: purchased DiscoveRx
# Procedure: as §1, §2
# T14 sequence (Q86U86 653-763 limits assumed): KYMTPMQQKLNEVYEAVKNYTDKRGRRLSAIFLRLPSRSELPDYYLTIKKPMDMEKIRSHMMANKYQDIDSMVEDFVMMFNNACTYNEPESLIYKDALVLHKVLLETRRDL
# T24 sequence (Q6PL18 980-1092 limits assumed): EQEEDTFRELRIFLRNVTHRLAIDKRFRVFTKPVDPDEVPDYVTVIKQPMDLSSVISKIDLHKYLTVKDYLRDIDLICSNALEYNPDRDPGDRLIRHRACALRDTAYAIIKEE
# T12 sequence (Q9UIF8 2060-2164 limits assumed): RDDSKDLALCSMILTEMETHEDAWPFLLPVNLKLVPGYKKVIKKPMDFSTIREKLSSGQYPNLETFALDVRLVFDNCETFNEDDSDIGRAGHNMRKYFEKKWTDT
# T20 sequence (Q9ULI0 951-1066 limits assumed): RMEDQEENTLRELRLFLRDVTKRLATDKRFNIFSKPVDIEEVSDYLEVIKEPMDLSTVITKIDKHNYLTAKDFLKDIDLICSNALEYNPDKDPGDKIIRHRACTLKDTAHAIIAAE
# T2 sequence (Q9H8M2 136-240 limits assumed): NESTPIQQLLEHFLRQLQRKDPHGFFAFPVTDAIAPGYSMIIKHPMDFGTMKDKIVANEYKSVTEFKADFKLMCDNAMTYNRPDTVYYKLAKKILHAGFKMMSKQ
# T26 sequence (Q92830 728-832 limits assumed): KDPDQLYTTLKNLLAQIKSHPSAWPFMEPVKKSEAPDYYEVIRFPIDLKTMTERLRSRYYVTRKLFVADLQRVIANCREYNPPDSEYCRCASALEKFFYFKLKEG
# T1 sequence (P25440 344-453 limits assumed): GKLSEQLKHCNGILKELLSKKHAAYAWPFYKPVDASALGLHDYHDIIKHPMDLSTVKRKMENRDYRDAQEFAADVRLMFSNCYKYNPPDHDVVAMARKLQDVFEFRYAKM
# T4 sequence (P51532 1453-1564 limits assumed): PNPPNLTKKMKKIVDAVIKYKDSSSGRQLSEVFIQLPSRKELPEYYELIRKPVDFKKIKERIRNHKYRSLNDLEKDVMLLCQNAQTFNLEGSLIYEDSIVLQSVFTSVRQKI
# T8 sequence (Q92831 723-827 limits assumed): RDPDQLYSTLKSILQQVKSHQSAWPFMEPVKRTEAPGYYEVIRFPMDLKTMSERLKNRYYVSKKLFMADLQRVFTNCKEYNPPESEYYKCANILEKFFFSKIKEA
# T25 sequence (O15164 824-1006 limits assumed): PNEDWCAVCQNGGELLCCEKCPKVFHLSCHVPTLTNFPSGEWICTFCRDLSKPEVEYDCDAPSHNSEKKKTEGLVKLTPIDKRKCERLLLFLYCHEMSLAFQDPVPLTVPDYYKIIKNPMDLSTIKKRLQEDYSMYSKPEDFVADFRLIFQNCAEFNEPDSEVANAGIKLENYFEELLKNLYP
# T15 sequence (Q86U86 177-287 limits assumed): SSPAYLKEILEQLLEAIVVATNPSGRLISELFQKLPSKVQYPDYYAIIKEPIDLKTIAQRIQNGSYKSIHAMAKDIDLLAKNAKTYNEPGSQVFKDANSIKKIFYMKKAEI
# T16 sequence (P25440 74-180 limits assumed): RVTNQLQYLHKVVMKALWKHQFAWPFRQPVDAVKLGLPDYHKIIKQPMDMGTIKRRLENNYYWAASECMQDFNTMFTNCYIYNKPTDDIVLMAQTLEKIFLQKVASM
# T31 sequence (Q9ULD4 589-693 limits assumed): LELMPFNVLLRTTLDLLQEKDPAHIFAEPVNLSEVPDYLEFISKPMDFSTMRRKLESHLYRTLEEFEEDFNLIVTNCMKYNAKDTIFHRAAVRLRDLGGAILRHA
# T30 sequence (Q15059 306-415 limits assumed): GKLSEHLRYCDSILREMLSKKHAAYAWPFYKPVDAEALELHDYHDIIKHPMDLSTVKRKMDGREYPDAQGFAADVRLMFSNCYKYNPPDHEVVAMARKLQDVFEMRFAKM
# T22 sequence (Q92793 1085-1192 limits assumed): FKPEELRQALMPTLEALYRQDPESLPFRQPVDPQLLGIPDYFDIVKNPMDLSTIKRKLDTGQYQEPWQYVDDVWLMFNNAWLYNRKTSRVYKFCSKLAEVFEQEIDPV
# T6 sequence (O95696 562-666 limits assumed): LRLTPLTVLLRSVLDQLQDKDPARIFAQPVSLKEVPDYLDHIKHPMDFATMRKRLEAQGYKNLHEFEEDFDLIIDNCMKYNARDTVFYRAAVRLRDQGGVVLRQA
# T11 sequence (Q9NSI6 1313-1418 limits assumed): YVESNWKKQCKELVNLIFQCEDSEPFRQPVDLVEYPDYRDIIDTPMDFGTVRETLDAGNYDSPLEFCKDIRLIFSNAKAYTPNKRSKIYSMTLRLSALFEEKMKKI
# T19 sequence (Q09472 1049-1156 limits assumed): as the sequence (Q92793 1085-1192 limits assumed) above, with N47S, V73I, F93Y, A98S counted along it
# T9 sequence (Q8IZX4 1517-1626 limits assumed): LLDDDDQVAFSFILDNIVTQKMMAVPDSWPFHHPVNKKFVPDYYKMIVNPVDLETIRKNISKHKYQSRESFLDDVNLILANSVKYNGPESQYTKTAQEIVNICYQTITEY
# T3 sequence (Q9NPI1 131-235 limits assumed): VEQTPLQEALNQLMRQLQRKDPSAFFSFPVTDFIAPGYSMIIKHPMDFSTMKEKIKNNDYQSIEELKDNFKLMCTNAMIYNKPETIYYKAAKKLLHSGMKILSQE
# T13 sequence (P55201 628-732 limits assumed): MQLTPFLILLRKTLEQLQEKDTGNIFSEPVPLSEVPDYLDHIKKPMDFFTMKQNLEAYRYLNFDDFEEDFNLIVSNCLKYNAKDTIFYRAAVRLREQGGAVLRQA
# T5 sequence (Q9UIF9 1793-1897 limits assumed): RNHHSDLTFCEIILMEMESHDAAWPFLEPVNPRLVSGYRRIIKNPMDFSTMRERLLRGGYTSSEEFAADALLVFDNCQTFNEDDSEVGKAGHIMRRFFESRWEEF
# T17 sequence (Q9BXF3 434-538 limits assumed): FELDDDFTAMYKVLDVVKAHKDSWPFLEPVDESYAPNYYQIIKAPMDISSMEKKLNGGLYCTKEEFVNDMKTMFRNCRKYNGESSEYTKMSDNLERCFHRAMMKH
# T7 sequence (Q15059 34-140 limits assumed): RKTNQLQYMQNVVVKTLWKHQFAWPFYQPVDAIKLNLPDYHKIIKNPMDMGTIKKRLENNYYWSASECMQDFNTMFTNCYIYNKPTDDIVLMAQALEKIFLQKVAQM
# T18 sequence (P21675 1519-1628 limits assumed): as the sequence (Q8IZX4 1517-1626 limits assumed) above, with M46V, V51M, I102V, I107L counted along it
# T21 sequence (P51531 1378-1506 limits assumed): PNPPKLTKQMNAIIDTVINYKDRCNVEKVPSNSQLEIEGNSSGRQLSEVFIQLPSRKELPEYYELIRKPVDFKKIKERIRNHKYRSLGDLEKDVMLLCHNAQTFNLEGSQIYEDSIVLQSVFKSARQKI
structure (smiles),measurement,setting,value
C[C@@H]1COCCN1c1cc(C2([S@](C)(=N)=O)CC2)nc(-c2cc[nH]c3nccc2-3)n1 [AZD6738],"Interaction with BRD2-2, BRD3-2, BRD4-2, CECR2 and WDR9-2",panel of 32 bromodomains,interacted weakly; also recorded: weakly interacted
same,inhibition at 20 µM,BRD2(2),84%
same,inhibition at 20 µM,BRD9,13%
same,inhibition at 20 µM,BRD7,14%
same,inhibition at 20 µM,SMARCA4,7%
same,inhibition at 20 µM,BAZ2A,0%
same,inhibition at 20 µM,BRPF2/BRD1,6%
same,inhibition at 20 µM,BRD3(1),60%
same,inhibition at 20 µM,PCAF,18%
same,inhibition at 20 µM,TAF1L(2),98%
same,inhibition at 20 µM,FALZ,11%
same,inhibition at 20 µM,WDR9(2),84%
same,inhibition at 20 µM,BAZ2B,0%
same,inhibition at 20 µM,BRPF1,11%
same,inhibition at 20 µM,PBRM1(5),0%
same,inhibition at 20 µM,PBRM1(2),5%
same,inhibition at 20 µM,BRD2(1),46%
same,inhibition at 20 µM,CECR2,92.3%
same,inhibition at 20 µM,TAF1(2),99.8%
same,inhibition at 20 µM,EP300,36%
same,inhibition at 20 µM,ATAD2B,0%
same,inhibition at 20 µM,SMARCA2,15%
same,inhibition at 20 µM,CREBBP,20%
same,inhibition at 20 µM,BRD4(1),50%
same,inhibition at 20 µM,ATAD2A,0%
same,inhibition at 20 µM,"TRIM24(PHD, Bromo.)",6%
same,inhibition at 20 µM,GCN5L(2),27%
same,inhibition at 20 µM,BRD4(2),69%
same,inhibition at 20 µM,BRDT(2),38%
same,inhibition at 20 µM,BRDT(1),56%
same,inhibition at 20 µM,BRD3(2),82%
same,inhibition at 20 µM,BRPF3,20%
